Calls of active or inactive are those of the source. No cut-off for these calls is given here.
What was measured:
[1] = target: T1, ATP-dependent translocase ABCB1 (Homo sapiens, UniProt P08183); assay: Inhibition of ABCB1 (unknown origin) expressed in human Flp-In-293 cells assessed as potentiation of doxorubicin-induced cytotoxicity at 1 uM by SRB assay relative to control; format: cell-based
HEK293 [2] = assay: Potentiation of doxorubicin-induced cytotoxicity against human Flp-In-293 cells at 2.5 uM by SRB assay relative to control; format: functional
[3] = target: T1, ATP-dependent translocase ABCB1; assay: Inhibition of ABCB1 (unknown origin) expressed in human Flp-In-293 cells assessed as potentiation of vincristine-induced cytotoxicity by SRB assay; format: cell-based
Homo sapiens [4] = organism: Homo sapiens; assay: Inhibition of P-gp in human KBVIN cells assessed as potentiation of vincristine-induced cytotoxicity at 1 uM by SRB assay relative to control; format: cell-based
HEK293 [5] = assay: Effect on ABCB1 mRNA expression in human Flp-In-293 cells expressing ABCB1 at 5 uM after 72 hrs by qRT-PCR method; format: functional, cell-based
Homo sapiens [6] = organism: Homo sapiens; assay: Inhibition of P-gp in human HeLaS3 cells assessed as potentiation of doxorubicin-induced cytotoxicity at 2.5 uM by SRB assay relative to control; format: cell-based
Homo sapiens [7] = organism: Homo sapiens; assay: Inhibition of P-gp in human KBVIN cells assessed as potentiation of paclitaxel-induced cytotoxicity at 2.5 uM by SRB assay relative to control; format: cell-based
HEK293 [8] = assay: Potentiation of paclitaxel-induced cytotoxicity against human Flp-In-293 cells at 1 uM by SRB assay relative to control; format: functional
[9] = Cytotoxicity against human KBVIN assessed as reduction in cell viability by SRB assay; format: cell-based
HEK293 [10] = assay: Potentiation of doxorubicin-induced cytotoxicity against human Flp-In-293 cells at 1 uM by SRB assay relative to control; format: functional
HEK293 [11] = assay: Potentiation of vincristine-induced cytotoxicity against human Flp-In-293 cells at 2.5 uM by SRB assay relative to control; format: functional
[12] = target: T1, ATP-dependent translocase ABCB1; assay: Inhibition of ABCB1 (unknown origin) expressed in human Flp-In-293 cells assessed as potentiation of paclitaxel-induced cytotoxicity at 2.5 uM by SRB assay relative to control; format: cell-based
Homo sapiens [13] = organism: Homo sapiens; assay: Inhibition of P-gp in human HeLaS3 cells assessed as potentiation of paclitaxel-induced cytotoxicity at 1 uM by SRB assay relative to control; format: cell-based
Homo sapiens [14] = organism: Homo sapiens; assay: Inhibition of P-gp in human KBVIN cells assessed as potentiation of doxorubicin-induced cytotoxicity at 1 uM by SRB assay relative to control; format: cell-based
[15] = target: T1, ATP-dependent translocase ABCB1; assay: Inhibition of ABCB1 (unknown origin) expressed in Flp-In-293 cells assessed as increase in calcein-AM uptake at 10 uM preincubated for 30 mins followed by calcein-AM addition measured after 30 mins by fluorescence spectrometric method relative to control; format: cell-based; conditions: 0.5 h
[16] = target: T1, ATP-dependent translocase ABCB1; assay: Inhibition of ABCB1 (unknown origin) expressed in Flp-In-293 cells assessed as increase in calcein-AM uptake at 5 uM preincubated for 30 mins followed by calcein-AM addition measured after 30 mins by fluorescence spectrometric method relative to control; format: cell-based; conditions: 0.5 h
Homo sapiens [17] = organism: Homo sapiens; assay: Inhibition of P-gp in human HeLaS3 cells assessed as potentiation of vincristine-induced cytotoxicity by SRB assay; format: cell-based
Homo sapiens [18] = organism: Homo sapiens; assay: Inhibition of P-gp in human KBVIN cells assessed as potentiation of paclitaxel-induced cytotoxicity by SRB assay; format: cell-based
HEK293 [19] = assay: Cytotoxicity against human Flp-In-293 cells expressing MDR1 assessed as reduction in cell viability by SRB assay; format: ADME, cell-based
Homo sapiens [20] = organism: Homo sapiens; assay: Inhibition of P-gp in human HeLaS3 cells assessed as potentiation of paclitaxel-induced cytotoxicity by SRB assay; format: cell-based
Homo sapiens [21] = organism: Homo sapiens; assay: Inhibition of P-gp in human KBVIN cells assessed as potentiation of doxorubicin-induced cytotoxicity at 2.5 uM by SRB assay relative to control; format: cell-based
Homo sapiens [22] = organism: Homo sapiens; assay: Inhibition of P-gp in human HeLaS3 cells assessed as potentiation of vincristine-induced cytotoxicity at 1 uM by SRB assay relative to control; format: cell-based
Homo sapiens [23] = organism: Homo sapiens; assay: Inhibition of P-gp in human KBVIN cells assessed as potentiation of paclitaxel-induced cytotoxicity at 1 uM by SRB assay relative to control; format: cell-based
[24] = target: T1, ATP-dependent translocase ABCB1; assay: Inhibition of ABCB1 (unknown origin) expressed in human Flp-In-293 cells assessed as potentiation of vincristine-induced cytotoxicity at 2.5 uM by SRB assay relative to control; format: cell-based
[25] = target: T1, ATP-dependent translocase ABCB1; assay: Inhibition of ABCB1 (unknown origin) expressed in human Flp-In-293 cells assessed as potentiation of vincristine-induced cytotoxicity at 1 uM by SRB assay relative to control; format: cell-based
Homo sapiens [26] = organism: Homo sapiens; assay: Inhibition of P-gp in human HeLaS3 cells assessed as potentiation of doxorubicin-induced cytotoxicity at 1 uM by SRB assay relative to control; format: cell-based
Homo sapiens [27] = organism: Homo sapiens; assay: Inhibition of P-gp in human KBVIN cells assessed as potentiation of doxorubicin-induced cytotoxicity by SRB assay; format: cell-based
HeLa S3 = assay: Cytotoxicity against human HeLaS3 assessed as reduction in cell viability by SRB assay; format: cell-based
Homo sapiens [28] = organism: Homo sapiens; assay: Inhibition of P-gp in human HeLaS3 cells assessed as potentiation of doxorubicin-induced cytotoxicity by SRB assay; format: cell-based
Homo sapiens [29] = organism: Homo sapiens; assay: Inhibition of P-gp in human KBVIN cells assessed as potentiation of vincristine-induced cytotoxicity at 2.5 uM by SRB assay relative to control; format: cell-based
HEK293 [30] = assay: Potentiation of paclitaxel-induced cytotoxicity against human Flp-In-293 cells at 2.5 uM by SRB assay relative to control; format: functional
Homo sapiens [31] = organism: Homo sapiens; assay: Inhibition of P-gp in human HeLaS3 cells assessed as potentiation of vincristine-induced cytotoxicity at 2.5 uM by SRB assay relative to control; format: cell-based
HEK293 [32] = assay: Cytotoxicity against human Flp-In-293 cells assessed as reduction in cell viability by SRB assay; format: cell-based
HEK293 [33] = assay: Potentiation of vincristine-induced cytotoxicity against human Flp-In-293 cells at 1 uM by SRB assay relative to control; format: functional
[34] = target: T1, ATP-dependent translocase ABCB1; assay: Inhibition of ABCB1 (unknown origin) expressed in human Flp-In-293 cells assessed as potentiation of doxorubicin-induced cytotoxicity at 2.5 uM by SRB assay relative to control; format: cell-based
HEK293 [35] = assay: Effect on ABCB1 mRNA expression in human Flp-In-293 cells at 5 uM after 72 hrs by qRT-PCR method; format: functional, cell-based
Homo sapiens [36] = organism: Homo sapiens; assay: Inhibition of P-gp in human KBVIN cells assessed as potentiation of vincristine-induced cytotoxicity by SRB assay; format: cell-based
[37] = target: T1, ATP-dependent translocase ABCB1; assay: Inhibition of ABCB1 (unknown origin) expressed in human Flp-In-293 cells assessed as potentiation of paclitaxel-induced cytotoxicity by SRB assay; format: cell-based
Homo sapiens [38] = organism: Homo sapiens; assay: Inhibition of P-gp in human HeLaS3 cells assessed as potentiation of paclitaxel-induced cytotoxicity at 2.5 uM by SRB assay relative to control; format: cell-based
[39] = target: T1, ATP-dependent translocase ABCB1; assay: Inhibition of ABCB1 (unknown origin) expressed in human Flp-In-293 cells assessed as potentiation of paclitaxel-induced cytotoxicity at 1 uM by SRB assay relative to control; format: cell-based
[40] = target: T1, ATP-dependent translocase ABCB1; assay: Inhibition of ABCB1 (unknown origin) expressed in human Flp-In-293 cells assessed as potentiation of doxorubicin-induced cytotoxicity by SRB assay; format: cell-based

T1 sequence (P08183 whole entry): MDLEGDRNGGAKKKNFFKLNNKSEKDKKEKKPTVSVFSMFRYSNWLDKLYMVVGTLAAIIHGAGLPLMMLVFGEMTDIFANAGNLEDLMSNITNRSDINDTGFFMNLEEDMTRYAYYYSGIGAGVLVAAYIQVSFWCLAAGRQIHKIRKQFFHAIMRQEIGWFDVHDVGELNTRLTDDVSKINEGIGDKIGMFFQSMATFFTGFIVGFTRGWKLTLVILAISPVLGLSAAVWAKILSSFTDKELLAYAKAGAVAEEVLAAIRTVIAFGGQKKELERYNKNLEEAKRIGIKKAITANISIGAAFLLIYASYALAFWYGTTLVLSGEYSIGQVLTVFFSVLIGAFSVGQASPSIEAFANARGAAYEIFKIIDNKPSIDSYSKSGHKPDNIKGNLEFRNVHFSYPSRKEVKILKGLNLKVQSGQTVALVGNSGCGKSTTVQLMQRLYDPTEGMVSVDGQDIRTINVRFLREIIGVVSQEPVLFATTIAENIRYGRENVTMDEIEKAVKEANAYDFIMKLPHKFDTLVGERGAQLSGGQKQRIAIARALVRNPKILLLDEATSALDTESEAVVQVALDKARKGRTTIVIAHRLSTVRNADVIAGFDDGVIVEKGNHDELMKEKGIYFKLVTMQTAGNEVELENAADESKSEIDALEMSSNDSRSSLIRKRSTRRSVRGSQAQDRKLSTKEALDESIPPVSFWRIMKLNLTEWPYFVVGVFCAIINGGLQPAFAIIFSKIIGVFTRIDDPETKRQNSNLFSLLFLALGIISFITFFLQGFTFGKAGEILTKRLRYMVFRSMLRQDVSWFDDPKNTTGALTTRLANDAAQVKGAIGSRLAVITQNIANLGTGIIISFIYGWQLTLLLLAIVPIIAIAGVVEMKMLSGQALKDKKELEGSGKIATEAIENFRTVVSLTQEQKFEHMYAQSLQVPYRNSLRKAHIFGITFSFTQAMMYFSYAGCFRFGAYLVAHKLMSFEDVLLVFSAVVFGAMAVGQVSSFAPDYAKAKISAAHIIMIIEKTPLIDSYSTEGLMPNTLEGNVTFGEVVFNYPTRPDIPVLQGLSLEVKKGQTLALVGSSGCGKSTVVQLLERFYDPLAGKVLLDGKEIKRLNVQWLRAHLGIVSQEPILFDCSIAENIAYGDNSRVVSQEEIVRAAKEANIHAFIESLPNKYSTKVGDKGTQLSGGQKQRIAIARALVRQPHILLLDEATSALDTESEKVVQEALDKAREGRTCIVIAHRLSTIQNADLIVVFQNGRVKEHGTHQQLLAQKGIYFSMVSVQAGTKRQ

With `COc1ccc(-c2cc(OCCN3CCCC3)c3c(-c4cccs4)c(N)oc3c2)cc1OC` the “fold change (FC)” value [1] was 2.78, the “fold change (FC)” value (HEK293 [2]) was 0.96 and the “inhibition (INH)” value [3] was “Dose-dependent effect”. For the same compound, the fold change (FC) (Homo sapiens [4]) was 25.7, the Activity (HEK293 [5]) was “inactive” and the fold change (FC) (Homo sapiens [6]) was 2.71. For the same compound, the fold change (FC) (Homo sapiens [7]) was 9.27, the “fold change (FC)” value (HEK293 [8]) was 0.92 and the IC50 [9] was 36.3 µM. The “fold change (FC)” value (HEK293 [10]) was 0.91, the “fold change (FC)” value (HEK293 [11]) was 8.36 and the “fold change (FC)” value [12] was 2.65. The fold change (FC) (Homo sapiens [13]) was 3.8, the fold change (FC) (Homo sapiens [14]) was 1.51 and the “fold change (FC)” value [15] was 9.12. For the same compound, the “fold change (FC)” value [16] was 8.52, the inhibition (Homo sapiens [17]) was “Dose-dependent effect” and the inhibition (Homo sapiens [18]) was “Dose-dependent effect”. For the same compound, the IC50 (HEK293 [19]) was 37 µM, the inhibition (Homo sapiens [20]) was “Dose-dependent effect” and the fold change (FC) (Homo sapiens [21]) was 1.88. For the same compound, the fold change (FC) (Homo sapiens [22]) was 1.17, the fold change (FC) (Homo sapiens [23]) was 2.55 and the “fold change (FC)” value [24] was 5.92. The “fold change (FC)” value [25] was 1.69, the fold change (FC) (Homo sapiens [26]) was 0.9 and the inhibition (Homo sapiens [27]) was “Dose-dependent effect”. The IC50 (HeLa S3) was 38 µM, the inhibition (Homo sapiens [28]) was “Dose-dependent effect” and the fold change (FC) (Homo sapiens [29]) was 34.2. The “fold change (FC)” value (HEK293 [30]) was 1.38, the fold change (FC) (Homo sapiens [31]) was 1.08 and the IC50 (HEK293 [32]) was 36.5 µM. For the same compound, the “fold change (FC)” value (HEK293 [33]) was 4.25, the “fold change (FC)” value [34] was 3.95 and the Activity (HEK293 [35]) was “inactive”. For the same compound, the inhibition (Homo sapiens [36]) was “Dose-dependent effect”, the “inhibition (INH)” value [37] was “Dose-dependent effect” and the fold change (FC) (Homo sapiens [38]) was 3.97. For the same compound, the “fold change (FC)” value [39] was 1.23 and the “inhibition (INH)” value [40] was “Dose-dependent effect”.

For `COc1ccc(-c2cc(OCCN3CCCC3)c3c(-c4cccs4)c(N)oc3c2)cc1`, the “fold change (FC)” value [1] was 2.65, the “fold change (FC)” value (HEK293 [2]) was 0.97 and the “inhibition (INH)” value [3] was “Dose-dependent effect”. The fold change (FC) (Homo sapiens [4]) was 177, the Activity (HEK293 [5]) was “inactive” and the fold change (FC) (Homo sapiens [6]) was 1.47. The fold change (FC) (Homo sapiens [7]) was 14.7, the “fold change (FC)” value (HEK293 [8]) was 0.98 and the IC50 [9] was 35.5 µM. For the same compound, the “fold change (FC)” value (HEK293 [10]) was 0.98, the “fold change (FC)” value (HEK293 [11]) was 7.15 and the “fold change (FC)” value [12] was 10.03. For the same compound, the fold change (FC) (Homo sapiens [13]) was 3.69, the fold change (FC) (Homo sapiens [14]) was 1.37 and the “fold change (FC)” value [15] was 10.4. For the same compound, the “fold change (FC)” value [16] was 6.78, the inhibition (Homo sapiens [17]) was “Dose-dependent effect” and the inhibition (Homo sapiens [18]) was “Dose-dependent effect”. For the same compound, the IC50 (HEK293 [19]) was 36.4 µM, the inhibition (Homo sapiens [20]) was “Dose-dependent effect” and the fold change (FC) (Homo sapiens [21]) was 1.94. For the same compound, the fold change (FC) (Homo sapiens [22]) was 1.08, the fold change (FC) (Homo sapiens [23]) was 2.8 and the “fold change (FC)” value [24] was 9.07. The “fold change (FC)” value [25] was 2.58, the fold change (FC) (Homo sapiens [26]) was 1.1 and the inhibition (Homo sapiens [27]) was “Dose-dependent effect”. For the same compound, the IC50 (HeLa S3) was 38.1 µM, the inhibition (Homo sapiens [28]) was “Dose-dependent effect” and the fold change (FC) (Homo sapiens [29]) was 260. The “fold change (FC)” value (HEK293 [30]) was 1.39, the fold change (FC) (Homo sapiens [31]) was 1.13 and the IC50 (HEK293 [32]) was 33.5 µM. For the same compound, the “fold change (FC)” value (HEK293 [33]) was 1.95, the “fold change (FC)” value [34] was 6.14 and the Activity (HEK293 [35]) was “inactive”. For the same compound, the inhibition (Homo sapiens [36]) was “Dose-dependent effect”, the “inhibition (INH)” value [37] was “Dose-dependent effect” and the fold change (FC) (Homo sapiens [38]) was 4.06. For the same compound, the “fold change (FC)” value [39] was 1.18 and the “inhibition (INH)” value [40] was “Dose-dependent effect”.
